Data as given in patent US20140369934A1, “dsRNA/DNA Hybrid Genome Replication Intermediate Of Metakaryotic Stem Cells” (MASSACHUSETTS INSTITUTE OF TECHNOLOGY, priority 2011, published 2014).

System: dsRNA/DNA-specific antibodies
Assay: Blocking test of dsRNA/DNA antibody immunofluorescence staining with poly(A)-poly(dT)
Format: binding
Conditions: 10 micrograms/milliliter Poly(A)-Poly(dT) mixed with antibody (1/20 final), incubated 10-15 minutes at room temperature
Procedure: The specificity of staining by antibodies was checked for by the blocking test with poly(A)-poly(dT), which was performed as follows:
Equal volumes of Poly(A)-Poly(dT) (20 ug/ml) and antibody (1/10) were mixed to give final concentrations of 10 ug/ml A.dT and 1/20 of serum (antibody). For controls, PBS was used in place of Poly(A)-Poly(dT). Samples were incubated for 10-15 minutes at room temperature.
Samples were then tested at final concentrations of 10, 2.0, 0.5 and 0.08 micrograms/ml, in each case incubating equal volumes of polynucleotide and antibody that are twice the final concentration, as above.

Poly(A)-Poly(dT)
staining with dsRNA/DNA-specific antibodies after addition of blocker: completely blocked
